{"source": "patent US20250017907A1", "about": "“METHOD FOR PREVENTING AND/OR TREATING LIVER FIBROSIS BY USING 6-METHOXYBENZOXAZOLINONE AND COIX LACHRYMA-JOBI L. EXTRACT COMPRISING 6-METHOXYBENZOXAZOLINONE” (Taichung District Agricultural Research and Extension …, priority 2023, published 2025)", "key": {"[1]": {"tested_on": "TAA-induced liver fibrotic C57BL/6J mice", "assay": "Liver histopathological observation (H&E, Sirius Red, IHC staining)", "type": "in vivo", "details": "6 weeks; for collagen deposition (Sirius Red) / inflammatory infiltration (H&E) / liver structure deformation (H&E) / α-SMA expression (IHC): vs TAA group", "method": "According to the present invention, animals used in the following examples are described as follows. Male C57BL/6J mice (5-week-old) were from the National Laboratory Animal Center (Taipei, Taiwan), and housed in a temperature-controlled room on a 12 h light-dark cycle with free access to food and drinking water at the Animal Center of the National Yang Ming Chiao Tung University (Taipei, Taiwan). All experiments were approved by Institutional Animal Care and Use Committee of National Yang Ming Chiao Tung University. […]\nFor tests of CX, mice were randomly divided into the following four groups (n=8, per group): (1) NT group, (2) TAA group (200 mg/kg), (3) CX group (CX20, 20 mg/kg), and (4) CX group (CX50, 50 mg/kg). NT group received pure saline, and other groups intraperitoneally injected with TAA dissolved into saline thrice a week. Moreover, NT group and TAA group also received 5% propylene glycol, while CX groups received CX dissolved into 5% propylene glycol (prepared in 0.9% saline) by oral gavage once per day. […]\nThe procedure of liver histopathological observation is as follows. After fixation in 10% neutral buffered formalin solution, the liver tissues were embedded with paraffin and then sliced into 4 μm-thickness sections. Pathological sections were examined to assess the change of tissue architecture with the H&E staining kit (CIS-Biotechnology, Taiwan), the condition of collagen deposition with the Sirius Red staining kit (CIS-Biotechnology, Taiwan), and the expression of specific proteins in tissue with the immunohistochemistry kit (Agilent, USA), as well as phospho-SMAD2 (1:100; GeneTex, USA), phospho-SMAD3 (1:100; GeneTex, USA), and α-SMA (1:100; GeneTex, USA) antibodies.\nTo examine the effects of CX on liver fibrosis, this example established a TAA-induced liver fibrotic C57BL/6J mouse model. FIG. 6 is a schematic diagram of animal experiment design in 6-methoxybenzoxazolinone (6-MBOA) (CX) groups. For animal experiments, 6-week-old C57BL/6J mice were randomly divided into four groups including NT, TAA, CX20 (TAA+20 mg/kg CX), CX50 (TAA+50 mg/kg CX). (n=8 per group). Mice were given intraperitoneal injection of TAA thrice a week to induce liver fibrosis; they also received CX or the vehicle by oral gavage once per day. At the end of animal tests, mice were sacrificed at 12 weeks of age. Six-week-old mice were randomly divided into four groups, namely NT, TAA, CX20 and CX50 (FIG. 6). Among these groups, only the NT group was oral gavaged and administered with vehicle, the TAA group was oral gavaged with vehicle and administered with TAA, and the CX groups were oral gavaged with CX and administered with TAA. Oral gavage was performed once a day while intraperitoneal injection was given thrice a week; both oral gavage and intraperitoneal injection were continuously administered for six weeks. After that, the mice were sacrificed, and their liver tissues and serum were collected for subsequent analyses."}, "[2]": {"tested_on": "TAA-induced liver fibrotic C57BL/6J mice", "assay": "Real-time PCR of liver fibrotic and inflammatory genes", "type": "in vivo", "details": "CX groups (20 and 50 mg/kg oral, 6 weeks); vs TAA group", "method": "For tests of adlay extracts, mice were randomly divided into the following seven groups (n=6, per group): (1) No treatment group (NT, normal diet), (2) Thioacetamide group (TAA, 200 mg/kg, normal diet), (3) 10% adlay seed powder (ASP) group, (4) 1% adlay leaf powder (ALP) group, (5) 1% adlay seed polysaccharide (ASPS) group, (6) 0.025% adlay seed ethanolic extract (ASE) group and (7) 0.1% ASE group. NT group received pure saline, and other groups intraperitoneally injected with TAA dissolved into saline thrice a week.\nFor tests of CX, mice were randomly divided into the following four groups (n=8, per group): (1) NT group, (2) TAA group (200 mg/kg), (3) CX group (CX20, 20 mg/kg), and (4) CX group (CX50, 50 mg/kg). NT group received pure saline, and other groups intraperitoneally injected with TAA dissolved into saline thrice a week. Moreover, NT group and TAA group also received 5% propylene glycol, while CX groups received CX dissolved into 5% propylene glycol (prepared in 0.9% saline) by oral gavage once per day.\nThe procedure of real-time PCR analysis is as follows. Total RNA was extracted with the Trizol reagent (Ambion, USA) and then reverse-transcribed into cDNA with RevertAid First Strand cDNA Synthesis kit (Thermo Scientific, USA). The PCR amplification was accomplished with SYBR Green PCR Master Mix (Applied Biosystems, USA), and the mRNA expression of the gene was normalized to GAPDH. All primers were obtained from Genomics (Genomics, Taiwan). Rat primer sequences are used for real-time PCR of HSC-T6 cells, and mouse primer sequences are used for real-time PCR of C57BL/6J mice."}, "[3]": {"tested_on": "TGF-β/SMAD signaling pathway", "assay": "Western blot of TGF-β/SMAD signaling pathway proteins", "type": "cell-based, rat", "details": "HSC-T6, TGF-β1 10 ng/mL, CX 10-100 μM", "method": "The procedure of cell cultures is as follows. HSC-T6 cell is an immortalized cell line isolated from transformed SV40 large T-antigen transformed primary stellate cells of male Sprague-Dawley rats. HSC-T6 cells were maintained in Dulbecco's Modified Eagle Medium (DMEM, Sigma-Aldrich, USA) containing 8% fetal bovine serum (FBS, HyClone, USA), 100 U/mL of penicillin, and 100 μg/mL of streptomycin (Gibco, USA).\nFor hepatic stellate cell (HSC) activation, cells were cultured for 24 h and then replaced with serum-free medium for 24 h, after that, treated with transforming growth factor beta 1 (TGF-β1) (10 ng/mL) in the presence or absence of CX (10-100 μM) or adlay leaf, root, and seed extracts (25 and 50 μg/mL) for 24 h, or 30 min for intracellular signal pathways.\nThe procedure of Western blot analysis is as follows. Cells were lysed in RIPA buffer with protease inhibitor and then centrifuged at 4° C., 12000 rpm for 10 min. Collected the supernatant and quantified the total protein concentration to 50 μg. After heating at 95° C. for 10 min, the protein samples were separated by SDS-PAGE gel, transferred to PVDF membrane, followed by blocking with 6% milk, incubated with primary antibodies at 4° C., overnight and secondary antibodies at room temperature for 1 h. Blot images were visualized on Amersham Imager 680 (Cytiva, USA) with ECL agent (GeneDireX, USA)."}, "[4]": {"details": "CX20: 20 mg/kg oral gavage once per day"}, "[5]": {"details": "CX50: 50 mg/kg oral gavage once per day"}}, "data": [{"smiles": "COc1ccc2[nH]c(=O)oc2c1", "note": "[CX, 6-methoxybenzoxazolinone]", "values": [{"measurement": "collagen deposition (Sirius Red)", "setting": "[1]; [4]", "value": "significantly reduced"}, {"measurement": "inflammatory infiltration (H&E)", "setting": "[1]; [4]", "value": "significantly reduced"}, {"measurement": "liver structure deformation (H&E)", "setting": "[1]; [4]", "value": "significantly reduced"}, {"measurement": "α-SMA expression (IHC)", "setting": "[1]; [4]", "value": "significantly reduced"}, {"measurement": "p-SMAD2 expression (IHC)", "setting": "[1]; [5]", "value": "negatively regulated"}, {"measurement": "p-SMAD3 expression (IHC)", "setting": "[1]; [5]", "value": "negatively regulated"}, {"measurement": "collagen deposition (Sirius Red)", "setting": "[1]; [5]", "value": "significantly reduced"}, {"measurement": "inflammatory infiltration (H&E)", "setting": "[1]; [5]", "value": "significantly reduced"}, {"measurement": "liver structure deformation (H&E)", "setting": "[1]; [5]", "value": "significantly reduced"}, {"measurement": "α-SMA expression (IHC)", "setting": "[1]; [5]", "value": "significantly reduced"}, {"measurement": "TAA-induced downregulation of liver IL-10 mRNA level", "setting": "[2]", "value": "significantly decreased"}, {"measurement": "TAA-induced upregulation of liver COL1A1 mRNA", "setting": "[2]", "value": "significantly decreased"}, {"measurement": "TAA-induced upregulation of liver IL-6 mRNA level", "setting": "[2]", "value": "significantly decreased"}, {"measurement": "TAA-induced upregulation of liver TNF-α mRNA level", "setting": "[2]", "value": "significantly decreased"}, {"measurement": "TAA-induced upregulation of liver α-SMA mRNA", "setting": "[2]", "value": "significantly decreased"}, {"measurement": "NOX4 expression (Western blot)", "setting": "[3]", "value": "decreased"}, {"measurement": "SNAIL1/2 expression (Western blot)", "setting": "[3]", "value": "decreased"}, {"measurement": "TWIST1/2 expression (Western blot)", "setting": "[3]", "value": "decreased"}, {"measurement": "ZEB1 expression (Western blot)", "setting": "[3]", "value": "decreased"}, {"measurement": "TGF-β1-stimulated SMAD2 phosphorylation (p-SMAD2, Western blot)", "setting": "[3]; 30 min", "value": "decreased with increasing dose"}, {"measurement": "TGF-β1-stimulated SMAD3 phosphorylation (p-SMAD3, Western blot)", "setting": "[3]; 30 min", "value": "decreased with increasing dose"}]}]}
